Tests used:
[1] = test system: sebum; test: Testing and evaluation of the antiseborrhoeic effect: percentage sebum reduction from browning of the backs of male rats; type: in vivo; conditions: Rattus norvegicus, 336 h, topical, male Wistar rats, 9 applications in 2 weeks; for inhibition in vivo at 0.02 % strength: Concentration 0.02 % by weight; for inhibition in vivo at 0.05 % strength: Concentration 0.05 % by weight; for inhibition in vivo at 0.5 % strength: Concentration 0.5 % by weight; for inhibition in vivo at 0.005 % strength: Concentration 0.005 % by weight; for inhibition in vivo at 0.01 % strength: Concentration 0.01 % by weight; for inhibition in vivo at 0.001 % strength: Concentration 0.001 % by weight; for inhibition in vivo at 0.1 % strength: Concentration 0.1 % by weight
Excerpt: The test is based on the observation that male rats secrete a brownish sebum so that the degree of greasiness of the skin may readily be visually assessed as browning of the skin. […] At the same time, only very small quantities of lipids can be extracted from the hair cut off; cf. J Soc. Cosmet. Chem. 34, 127-135 (1983)).
Male Wistar rats having a body mass of 220 to 230 grams at the beginning of the test were used as the test animals. The test substances, dissolved in a mixtures of equal volumes of ethanol and acetone, were brushed onto half of the back of each of 6 rats for each substance and concentration tested. The other half of the back of each tested rat was treated with the solvent only. One application was made on each tested rat on each of Monday through Friday of one week and on each of Monday through Thursday in the next week; the rats were then evaluated on Friday of the second week. For evaluation, the rats were shaved on their backs and flanks and visually assessed independently by a panel of examiners (6 people) under double-blind conditions. The degree of browning on the backs of the rats was visually assessed as a measure of the sebum coating. A group of six rats of the same type treated on both sides with the solvent only was used for control.
The intensities of the brown color on each control rat, and on the side of each other tested rat that had been treated with a solution containing a substance to be tested for its sebosuppressive ability, were scored according to the following scale:
The sum of the scores for the six treated rats in each group was divided by the sum of the scores for the six control rats for that group, this quotient was multiplied by 100, and that result subtracted from 100, to give the percentage sebum reduction as recorded in the tables below.

[2] = test system: sebum; conditions: male rats systematically treated; cited from earlier work

Structure (SMILES): COC(=O)c1ccc(OCCCC2CCCCC2)cc1 [Example 1.3, 4-(3-cyclohexylpropyloxy)-benzoic acid methyl ester]
- inhibition in vivo at 0.02 % strength [1]: 0%
- inhibition in vivo at 0.05 % strength [1]: 68%
- inhibition in vivo at 0.5 % strength [1]: 99%

Structure (SMILES): COC(=O)C=Cc1ccc(OCC2CCCCC2)cc1 [Example 1.2, 4-cyclohexylmethoxycinnamic acid methyl ester]
- inhibition in vivo at 0.5 % strength [1]: 29%

Structure (SMILES): C/C(=C\COc1ccc(C(=O)O)cc1)CCC[C@H](C)CCC[C@H](C)CCCC(C)C [Example 1.15, 4-phytyloxybenzoic acid]
- inhibition in vivo at 0.05 % strength [1]: 35%

Structure (SMILES): O=C(O)c1ccc(OCCCC2CCCCC2)cc1 [Example 1.6, 4-(3-cyclohexylpropyloxy)-benzoic acid]
- inhibition in vivo at 0.005 % strength [1]: 0%
- inhibition in vivo at 0.01 % strength [1]: 52%
- inhibition in vivo at 0.02 % strength [1]: 84%

Structure (SMILES): COC(=O)c1ccc(OCC=C(C)CCC=C(C)CCC=C(C)C)cc1 [Example 1.8, 4-farnesyloxybenzoic acid methyl ester]
- inhibition in vivo at 0.01 % strength [1]: 38%
- inhibition in vivo at 0.05 % strength [1]: 86%

Structure (SMILES): CC(CCC1C(C)CCCC1(C)C)Oc1ccc(C(=O)O)cc1 (stereo not shown) [Example 1.4, 4-(4-(1,3,3-trimethyl-2-cyclohexyl)-2-butoxy)-benzoic acid]
- inhibition in vivo at 0.001 % strength [1]: 73%
- inhibition in vivo at 0.005 % strength [1]: 88%
- inhibition in vivo at 0.01 % strength [1]: 93%
- inhibition in vivo at 0.05 % strength [1]: 100%

Structure (SMILES): CC#C[C@]1(O)CC[C@H]2[C@@H]3CCc4cc(O)ccc4[C@H]3CC[C@@]21C [estrogen]
- skin colour after shearing (browning by sebum) [2]: only show the normal light, pink-colored skin after shearing

Structure (SMILES): O=C(O)C=Cc1ccc(OCC2CCCCC2)cc1 [Example 1.5, 4-(cyclohexylmethoxy)-cinnamic acid]
- inhibition in vivo at 0.5 % strength [1]: 15%

Structure (SMILES): CC(C)=CCCC(C)=CCCC(C)=CCOc1ccc(CO)cc1 [Example 1.17, 4-farnesyloxybenzyl alcohol]
- inhibition in vivo at 0.001 % strength [1]: 14%
- inhibition in vivo at 0.002 % strength ([1]; Concentration 0.002 % by weight): 18%
- inhibition in vivo at 0.005 % strength [1]: 72%
- inhibition in vivo at 0.01 % strength [1]: 87%
- inhibition in vivo at 0.05 % strength [1]: 86%

Structure (SMILES): COC(=O)c1ccc(OC(C)CCC2C(C)CCCC2(C)C)cc1 (stereo not shown) [Example 1.1, 4-[4-(1,1,3-trimethyl-2-cyclohexyl)-2-butoxy]-benzoic acid methyl ester]
- inhibition in vivo at 0.01 % strength [1]: 25%
- inhibition in vivo at 0.05 % strength [1]: 99%

Structure (SMILES): OCC=Cc1ccc(OCC2CCCCC2)cc1 [Example 1.7, 4-cyclohexylmethoxycinnamic alcohol]
- inhibition in vivo at 0.1 % strength [1]: 53%
- inhibition in vivo at 0.5 % strength [1]: 66%

Structure (SMILES): COC(=O)c1ccc(OC/C=C(\C)CCC=C(C)C)cc1 [Example 1.9, 4-geranyloxybenzoic acid methyl ester]
- inhibition in vivo at 0.1 % strength [1]: 40%

Structure (SMILES): COC(=O)CCc1ccc(OCC=C(C)CCC=C(C)CCC=C(C)C)cc1 [Example 1.11, 3-(4-farnesyloxyphenyl)-propionic acid methyl ester]
- inhibition in vivo at 0.05 % strength [1]: 86%

Structure (SMILES): CC(C)=CCCC(C)=CCCC(C)=CCOc1ccc(CCC(=O)O)cc1 [Example 1.13, 3-(4-farnesyloxyphenyl)-propionic acid]
- inhibition in vivo at 0.05 % strength [1]: 68%

Structure (SMILES): CC(C)=CCCC(C)=CCCC(C)=CCOc1ccc(C(=O)O)cc1 [Example 1.16, 4-farnesyloxybenzoic acid]
- inhibition in vivo at 0.01 % strength [1]: 69%

Structure (SMILES): CC(C)=CCCC(C)=CCCC(C)=CCOc1ccc(C=CC(=O)O)cc1 [Example 1.14, 4-farnesyloxycinnamic acid]
- inhibition in vivo at 0.05 % strength [1]: 73%

Structure (SMILES): COC(=O)C=Cc1ccc(OCC=C(C)CCC=C(C)CCC=C(C)C)cc1 [Example 1.12, 4-farnesyloxycinnamic acid methyl ester]
- inhibition in vivo at 0.05 % strength [1]: 85%

Reference: patent publication US4939171A, “Sebosuppressive topical preparations” (Henkel Kommanditgesellschaft auf Aktien, priority 1987, dated 1990)
